Assay results from patent publication US20100069395A1, “Pyrazolo[1,5-a]pyrimidine-3-carboxylic acid compounds as protein kinase inhibitors” (priority 2006, published 2010).

Compound | melting point
Cc1ccc(C(=O)Nc2cccc(C(F)(F)F)c2)cc1NC(=O)c1cnc2ccnn2c1 [Example 1, Pyrazolo[1,5-a]pyrimidine-6-carboxylic acid[2-methyl-5-(3-trifluoromethyl-phenylcarbamoyl)-phenyl]-amide] | 222 to 224 °C
Cc1ccc(NC(=O)c2cccc(C(F)(F)F)c2)cc1NC(=O)c1cnc2ccnn2c1 [Example 2, Pyrazolo[1,5-a]pyrimidine-6-carboxylic acid[2-methyl-5-(3-trifluoromethyl-benzoylamino)-phenyl]-amide] | 239 to 241 °C
Cc1ccc(C(=O)Nc2cccc(C(F)(F)F)c2)cc1NC(=O)C1=CNc2ccnn2C1 [Example 3, 4,7-Dihydro-pyrazolo[1,5-a]pyrimidine-6-carboxylic acid [2-methyl-5-(3-trifluoromethyl-phenylcarbamoyl)-phenyl]-amide] | 259 to 263 °C
Cc1cccc(C)c1NC(=O)c1cnc2c(-c3cccc(N4CCN(C)CC4)c3)cnn2c1 [Example 4, 3-[3-(4-Methyl-piperazin-1-yl)-phenyl]-pyrazolo[1,5-a]pyrimidine-6-carboxylic acid(2,6-dimethyl-phenyl)-amide] | 227 to 229 °C
COc1ccc(-c2cnn3cc(C(=O)Nc4c(C)cccc4C)cnc23)cc1OC [Example 5, 3-(3,4-Dimethoxy-phenyl)-pyrazolo[1,5-a]pyrimidine-6-carboxylic acid (2,6-dimethylphenyl)-amide] | 230 to 232 °C
Cc1ccc(NC(=O)c2ccc(F)c(C(F)(F)F)c2)cc1NC(=O)c1cnc2ccnn2c1 [Example 6, Pyrazolo[1,5-a]pyrimidine-6-carboxylic acid[5-(4-fluoro-3-trifluoromthyl-benzoylamino)-2-methyl-phenyl]-amide] | 267 to 269 °C
COc1ccc(C(=O)Nc2ccc(C)c(NC(=O)c3cnc4ccnn4c3)c2)cc1C(F)(F)F [Example 7, Pyrazolo[1,5-a]pyrimidine-6-carboxylic acid[5-(4-methoxy-3-trifluoromethyl-benzoylamino)-2-methyl-phenyl]-amide] | 256 to 258 °C
